What was measured:
[1] = system: GADD45β (X54149), GADD45 (U00937), AV138783, AI847051, AF055638, AI461837; experiment: gene expression analysis (Affymetrix mouse microarray chip U74); format: cell-based; conditions: L5178Y cells treated four hours
Experimental: Mouse lymphoma cell line L5178Y (ATCC No. CRL 9518, ATCC) were cultivated in RPMI medium (Invitrogen Life Technologies, Inc., Carlsbad, Calif.) supplemented with 10% fetal bovine serum and antibiotics penicillin and streptomycin at 37° C. Cells from exponentially growing cultures were seeded at a concentration 3×10^5 cells/ml and incubated for 24 hours and maintained below 1×10^6 cells/ml. […] After the treatment, the cells were washed in PBS (Invitrogen Life Technologies, Inc., Carlsbad, Calif.). Half of the cells where then immediately frozen and stored at −80° C. prior to gene expression analysis, as described in Example 2 below. The other half was allowed to recover in a fresh growth medium for 20 hours. Cell viability was determined based on a cell count. Cell viability results appear in FIG. 1 and FIG. 2 as a ratio between treated versus vehicle control. […]
Gene expression was measured using Affymetrix GeneChip® technology (Affymetrix, Inc., Santa Clara, Calif.) using standard protocols available from Affymetrix (see, GeneChip® Expression Analysis, Technical Manual, Rev. 2 (2001), Affymetrix, Inc., available at http://www.affymetrix.com/pdf/expression_manual.pdf). […] The hybridized chips were scanned using a Hewlett Packard GeneArray™ Scanner, (Hewlett Packard Company, Palo Alto, Calif.) and the resulting data were evaluated using Affymetrix Microarray suite software (Affymetrix). […]

L5178Y cells = experiment: in vitro micronucleus assay; format: cell-based, mouse; conditions: L5178Y cells treated four hours, 20 hours recovery; sodium chloride at high concentrations
Experimental: Mouse lymphoma cell line L5178Y (ATCC No. CRL 9518, ATCC) were cultivated in RPMI medium (Invitrogen Life Technologies, Inc., Carlsbad, Calif.) supplemented with 10% fetal bovine serum and antibiotics penicillin and streptomycin at 37° C. Cells from exponentially growing cultures were seeded at a concentration 3×10^5 cells/ml and incubated for 24 hours and maintained below 1×10^6 cells/ml. […] After the treatment, the cells were washed in PBS (Invitrogen Life Technologies, Inc., Carlsbad, Calif.). […] The other half was allowed to recover in a fresh growth medium for 20 hours. Cell viability was determined based on a cell count. […] The cells were then harvested for use in the in vitro micronucleus assay of Example 3 below.
Treated cells prepared according to Example 1 were attached to glass slides by dropping them onto the glass slides using a pipette after hypotonic treatment with 75 mM KCl (Sigma-Aldrich Corp., St Louis, Mo.) and fixation with 3:1 (v/v) MeOH:acetic acid (JT Baker, Inc., Phillipsburg, N.J.). The cells were then stained using 31.25 μg/ml solution of acridine orange (Molecular Probes, Inc., Eugene, Oreg.).
Micronuclei were counted using a Axiokop 2 fluorescent microscopy (Carl Zeiss Microlmaging, Inc., Thornwood, N.Y.).

| Structure (SMILES) | expression of GADD45β (X54149) and GADD45 (U00937) [1] | level of expression of these genes (GADD45β, GADD45, AV138783, AI847051, AF055638, AI461837) [1] | genotoxic stress, as demonstrated using a micronucleus assay (L5178Y cells) |
| --- | --- | --- | --- |
| N.N.[Cl][Pt][Cl] [cisplatin] | increased expression |  |  |
| [Cl-].[Na+] [sodium chloride] |  | no effect | show evidence of genotoxic stress |
